# Assay results: patent US20170151264A1, “COMBINATION” (Almirall, S.A., priority 2014, published 2017)
# Columns and labels:
# [1] = system: autoantibody-mediated cutaneous lesions; experiment: Immunization-induced mouse model of epidermolysis bullosa acquista (EBA); format: in vivo, B6.SJL-H2s mice; details: 6 week treatment; for body weight gain: LAS191954 3 mg/kg/day or methylprednisolone 20 mg/kg/day orally
# Method: Induction of experimental EBA was performed as described in Iwata H, Bieber K, Tiburzy B et al., J Immunol. 2013; 191:2978-2988. Briefly, 6-10 week B6.SJL-H2s mice were immunized with an emulsion of a recombinant protein encompassing the vWFA2 binding domain of mouse type VII collagen (COL7) in adjuvant (Titermax). After immunization, mice were weekly evaluated for the presence and extend of clinical disease, measured as percentage of body surface affected by skin lesions (erythema, blisters, erosions and crusts).
# Treatments were carried out over a 6-week period, and mice were evaluated for the extend of clinical disease (primary endpoint) weekly. Clinical manifestations were scored 0 to 5, corresponding to 0%, <1%, ≧1% to <5%, ≧5% to <10%, ≧10% to <20% of body surface area affected, respectively. Area under Curve (AUC) was calculated from the score at inclusion, 1, 2, 3, 4, 5 and 6 weeks after allocation to treatment. For better comparability between experiments, the affected body surface area at weeks 1-6 was related to that at inclusion (set at 1).
# Body weight was monitored weekly during treatment.
# [2] = system: Concanavalin A induced plasma interleukin-2 (IL-2) release; experiment: Concanavalin A induced plasma IL-2 release in rats; format: in vivo, Wistar rats; details: for reduction in IL2 production versus vehicle-treated con A-induced rats: LAS191954 0.1 mg/kg and/or dexamethasone 0.03 mg/kg, 1 h before con A, IL2 at 90 min; for plasma levels alone versus in combination: LAS191954 0.1 mg/kg, dexamethasone 0.03 mg/kg, rat
# [3] = system: neutrophils, eosinophils and lymphocytes in bronchoalveolar fluid (BALF); experiment: House dust mite induced asthma model; format: in vivo, Mouse
# neutrophils in BALF = experiment: Cigarette smoke model; format: in vivo, Mouse; details: LAS191954 1 mg/kg and/or dexamethasone 0.3 mg/kg
# PI3Kδ [4] = target: T1, PI3Kδ (Homo sapiens, UniProt O00329); experiment: M-CSF-induced AKT phosphorylation in THP-1 cells; format: cell-based; details: THP-1, M-CSF stimulus, phosphorylated AKT
# Target sequence in this assay (O00329 whole entry): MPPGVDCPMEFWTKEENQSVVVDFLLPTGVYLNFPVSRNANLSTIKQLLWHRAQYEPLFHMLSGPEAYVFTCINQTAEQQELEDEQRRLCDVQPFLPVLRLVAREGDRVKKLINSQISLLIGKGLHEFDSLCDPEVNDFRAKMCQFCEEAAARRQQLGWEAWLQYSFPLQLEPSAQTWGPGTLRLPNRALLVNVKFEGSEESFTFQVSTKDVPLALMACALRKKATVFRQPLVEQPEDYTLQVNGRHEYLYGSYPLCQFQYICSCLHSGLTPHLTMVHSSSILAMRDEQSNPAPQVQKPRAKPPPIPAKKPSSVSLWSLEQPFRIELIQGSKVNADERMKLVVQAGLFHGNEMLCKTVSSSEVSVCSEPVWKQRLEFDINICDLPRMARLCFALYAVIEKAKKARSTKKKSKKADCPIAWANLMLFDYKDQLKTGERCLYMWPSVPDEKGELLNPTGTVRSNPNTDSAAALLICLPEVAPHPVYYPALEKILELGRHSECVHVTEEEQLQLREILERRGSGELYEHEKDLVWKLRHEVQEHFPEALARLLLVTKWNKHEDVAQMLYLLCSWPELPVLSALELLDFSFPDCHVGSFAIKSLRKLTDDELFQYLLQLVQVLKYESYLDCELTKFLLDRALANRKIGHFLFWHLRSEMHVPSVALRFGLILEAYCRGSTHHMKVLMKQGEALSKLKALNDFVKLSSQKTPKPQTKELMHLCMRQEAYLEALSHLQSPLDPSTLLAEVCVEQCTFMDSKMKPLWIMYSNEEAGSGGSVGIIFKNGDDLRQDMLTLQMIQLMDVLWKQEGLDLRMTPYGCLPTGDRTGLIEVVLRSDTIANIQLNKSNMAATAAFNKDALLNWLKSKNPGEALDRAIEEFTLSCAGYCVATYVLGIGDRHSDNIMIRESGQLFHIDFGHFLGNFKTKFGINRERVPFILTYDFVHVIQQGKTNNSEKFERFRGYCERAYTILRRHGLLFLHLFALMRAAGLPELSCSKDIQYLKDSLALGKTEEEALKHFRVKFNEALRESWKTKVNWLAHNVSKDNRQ
# Target sequence in this assay (P27986 whole entry partner): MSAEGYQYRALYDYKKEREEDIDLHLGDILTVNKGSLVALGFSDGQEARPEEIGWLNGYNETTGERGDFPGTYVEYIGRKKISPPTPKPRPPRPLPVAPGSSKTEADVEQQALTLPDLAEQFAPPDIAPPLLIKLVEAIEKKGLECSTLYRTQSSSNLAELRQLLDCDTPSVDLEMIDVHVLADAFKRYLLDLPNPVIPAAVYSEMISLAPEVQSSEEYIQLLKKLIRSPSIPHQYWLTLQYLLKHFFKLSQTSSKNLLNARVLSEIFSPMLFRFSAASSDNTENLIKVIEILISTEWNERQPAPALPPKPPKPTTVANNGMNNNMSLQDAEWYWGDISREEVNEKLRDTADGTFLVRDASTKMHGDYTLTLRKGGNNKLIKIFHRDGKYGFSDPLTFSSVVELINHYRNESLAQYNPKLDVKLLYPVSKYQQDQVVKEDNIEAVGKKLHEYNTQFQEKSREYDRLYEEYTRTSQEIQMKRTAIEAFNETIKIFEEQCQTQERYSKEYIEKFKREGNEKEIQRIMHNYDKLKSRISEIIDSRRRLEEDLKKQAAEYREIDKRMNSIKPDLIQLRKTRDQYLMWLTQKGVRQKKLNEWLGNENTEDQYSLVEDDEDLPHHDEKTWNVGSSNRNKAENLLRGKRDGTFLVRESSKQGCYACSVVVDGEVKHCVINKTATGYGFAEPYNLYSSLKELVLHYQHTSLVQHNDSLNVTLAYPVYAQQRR
# PI3Kδ [5] = target: T1, PI3Kδ; experiment: BCR crosslinking-induced CD69 expression in CD19+ B cells, isolated PBMC; format: cell-based; details: Anti-IgD, CD69 surface expression
# Target sequence in this assay (O00329 whole entry): as the sequence (O00329 whole entry) above
# Target sequence in this assay (P27986 whole entry partner): as the sequence (P27986 whole entry partner) above
# PI3Kδ [6] = target: T1, PI3Kδ; experiment: BCR crosslinking-induced B cell CD69 expression, human whole blood; format: cell-based; details: CD19+ cells (human whole blood), B cell CD69 surface expression
# Target sequence in this assay (O00329 whole entry): as the sequence (O00329 whole entry) above
# Target sequence in this assay (P27986 whole entry partner): as the sequence (P27986 whole entry partner) above
# PI3Kδ [7] = target: T1, PI3Kδ; experiment: Immune complex-induced ROS release in human neutrophils; format: cell-based; details: immune complexes
# Target sequence in this assay (O00329 whole entry): as the sequence (O00329 whole entry) above
# Target sequence in this assay (P27986 2-724 partner limits assumed): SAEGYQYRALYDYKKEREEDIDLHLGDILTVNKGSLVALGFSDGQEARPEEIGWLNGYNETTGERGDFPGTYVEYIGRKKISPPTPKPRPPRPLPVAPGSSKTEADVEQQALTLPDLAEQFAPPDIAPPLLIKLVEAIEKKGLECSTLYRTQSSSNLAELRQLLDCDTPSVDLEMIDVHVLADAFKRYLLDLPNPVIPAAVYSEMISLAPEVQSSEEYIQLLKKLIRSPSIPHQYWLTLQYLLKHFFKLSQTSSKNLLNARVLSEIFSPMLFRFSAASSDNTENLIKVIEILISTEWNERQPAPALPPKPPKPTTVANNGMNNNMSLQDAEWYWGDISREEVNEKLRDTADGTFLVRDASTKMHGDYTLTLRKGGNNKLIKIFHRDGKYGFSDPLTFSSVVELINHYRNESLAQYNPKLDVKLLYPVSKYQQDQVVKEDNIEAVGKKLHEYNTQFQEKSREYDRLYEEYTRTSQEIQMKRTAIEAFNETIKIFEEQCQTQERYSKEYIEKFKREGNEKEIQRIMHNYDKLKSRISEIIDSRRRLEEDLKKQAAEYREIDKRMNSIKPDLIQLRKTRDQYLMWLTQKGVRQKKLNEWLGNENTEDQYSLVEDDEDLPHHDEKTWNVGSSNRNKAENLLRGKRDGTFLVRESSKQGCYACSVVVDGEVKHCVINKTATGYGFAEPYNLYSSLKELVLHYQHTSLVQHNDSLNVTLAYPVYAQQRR
# [8] = system: 81 GPCR receptors, 8 ion channels and 5 transporters; experiment: General selectivity panel (Cerep); format: binding; details: 10 μM
# [9] = system: 273 protein and lipid kinases; experiment: General selectivity kinase panel (Millipore, Invitrogen and ProQinase); format: biochemical; details: 10 μM
# [10] = system: primary antibody responses to KLH; experiment: Primary T cell dependent antibody response (TDAR) to KLH in mice; format: in vivo
# Method: This assay allows a global assessment of the effect of a drug candidate on antigen presentation, helper T lymphocyte function and B lymphocyte dependent antibody production.
# In both cases, the administration of the test compound started on the day of sensitization (day +1, KLH 2 mg/mouse, intravenously). […] A possible reason for this discrepancy is that the lymphocyte count of the concurrent vehicle group of the latter study was abnormally lower than usual, which could mask a potential effect of the test compound on this parameter.
# [11] = system: secondary IgG antibody responses to KLH; experiment: Secondary TDAR to KLH in mice; format: in vivo
# Method: This assay included two immunizations with KLH separated 15 days apart (50 μg KLH/animal, intraperitoneally) and specific IgG anti-KLH levels were measured on day +11 after the second immunization. Administration of test compound (0.3 and 3 mg/kg) started on the day of second immunization (day +1) and then once daily for the next 9 days.
# [12] = system: Anti-Dsg3 and anti-dsDNA autoantibody production; experiment: MRL/lpr spontaneous autoimmune disease model, autoantibody production; format: in vivo, MRL/Ipr mouse; details: for Inhibition (%) of Anti Dsg3 total IgG production (Normalized AUCw 12-19) versus Vehicle / Inhibition (%) of Anti dsDNA total IgG production (Normalized AUCw 12-19) versus Vehicle: LAS191954 3 mg/kg or prednisolone 10 mg/kg orally once a day for 6 weeks
# Method: The primary endpoint of this study was assessment of autoantibody production, including pemphigus-specific anti-Dsg3 antibodies.
# The prednisolone dose was selected based on previous reports and corresponds to a high CS dose in humans.
# As autoantibodies develop progressively and may follow a different course in each animal, anti-dsDNA antibody levels were measured on week 12 and used to uniformly distribute animals to dosing groups. At week 13, daily treatments were initiated and continued for 6 weeks. Antibodies to dsDNA and Dsg3 were measured at weeks 12, 15, 17 and 19. Skin lesions were inspected visually throughout the study. Effects on other parameters such as proteinuria, as well as general hematological, serological, and histological signs were evaluated at study completion.
# PI3K p110γ = PI3K p110γ (Homo sapiens, UniProt P48736); details: recombinant human isoform, pre-incubation 30 min
# Chain of PI3K p110γ (P48736 whole entry, canonical isoform): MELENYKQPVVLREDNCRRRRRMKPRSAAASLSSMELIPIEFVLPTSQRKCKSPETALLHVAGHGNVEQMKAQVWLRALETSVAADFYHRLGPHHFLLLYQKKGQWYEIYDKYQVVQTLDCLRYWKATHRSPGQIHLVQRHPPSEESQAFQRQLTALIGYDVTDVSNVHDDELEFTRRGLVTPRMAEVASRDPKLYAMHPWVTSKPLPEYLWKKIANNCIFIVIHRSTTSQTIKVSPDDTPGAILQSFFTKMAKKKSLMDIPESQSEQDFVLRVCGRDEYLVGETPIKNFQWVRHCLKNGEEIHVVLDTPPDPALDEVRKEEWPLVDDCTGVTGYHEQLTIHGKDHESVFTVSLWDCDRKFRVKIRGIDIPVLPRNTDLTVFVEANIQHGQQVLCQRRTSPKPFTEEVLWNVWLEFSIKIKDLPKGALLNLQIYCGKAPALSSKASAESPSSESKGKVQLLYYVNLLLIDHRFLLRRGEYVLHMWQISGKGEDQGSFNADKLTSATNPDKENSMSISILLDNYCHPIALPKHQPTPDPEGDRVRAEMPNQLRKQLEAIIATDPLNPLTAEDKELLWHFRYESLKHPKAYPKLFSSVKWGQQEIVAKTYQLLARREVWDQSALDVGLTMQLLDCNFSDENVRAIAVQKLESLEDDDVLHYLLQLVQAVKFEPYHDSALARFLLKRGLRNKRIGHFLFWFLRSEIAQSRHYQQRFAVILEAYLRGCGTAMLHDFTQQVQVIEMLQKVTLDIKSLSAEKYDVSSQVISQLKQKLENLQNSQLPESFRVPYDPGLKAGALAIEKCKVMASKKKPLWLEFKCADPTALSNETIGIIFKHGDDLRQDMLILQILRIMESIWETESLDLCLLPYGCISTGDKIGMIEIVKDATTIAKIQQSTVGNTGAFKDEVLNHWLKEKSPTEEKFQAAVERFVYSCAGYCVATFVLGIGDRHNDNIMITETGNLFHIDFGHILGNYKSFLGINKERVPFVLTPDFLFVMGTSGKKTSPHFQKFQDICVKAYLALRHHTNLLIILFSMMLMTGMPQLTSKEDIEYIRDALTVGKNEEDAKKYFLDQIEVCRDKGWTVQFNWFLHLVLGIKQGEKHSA
# PI3Kβ = PI3Kβ (Homo sapiens, UniProt P42338); details: HUVEC, S1P stimulus, phosphorylated AKT
# Chain of PI3Kβ (P42338 whole entry): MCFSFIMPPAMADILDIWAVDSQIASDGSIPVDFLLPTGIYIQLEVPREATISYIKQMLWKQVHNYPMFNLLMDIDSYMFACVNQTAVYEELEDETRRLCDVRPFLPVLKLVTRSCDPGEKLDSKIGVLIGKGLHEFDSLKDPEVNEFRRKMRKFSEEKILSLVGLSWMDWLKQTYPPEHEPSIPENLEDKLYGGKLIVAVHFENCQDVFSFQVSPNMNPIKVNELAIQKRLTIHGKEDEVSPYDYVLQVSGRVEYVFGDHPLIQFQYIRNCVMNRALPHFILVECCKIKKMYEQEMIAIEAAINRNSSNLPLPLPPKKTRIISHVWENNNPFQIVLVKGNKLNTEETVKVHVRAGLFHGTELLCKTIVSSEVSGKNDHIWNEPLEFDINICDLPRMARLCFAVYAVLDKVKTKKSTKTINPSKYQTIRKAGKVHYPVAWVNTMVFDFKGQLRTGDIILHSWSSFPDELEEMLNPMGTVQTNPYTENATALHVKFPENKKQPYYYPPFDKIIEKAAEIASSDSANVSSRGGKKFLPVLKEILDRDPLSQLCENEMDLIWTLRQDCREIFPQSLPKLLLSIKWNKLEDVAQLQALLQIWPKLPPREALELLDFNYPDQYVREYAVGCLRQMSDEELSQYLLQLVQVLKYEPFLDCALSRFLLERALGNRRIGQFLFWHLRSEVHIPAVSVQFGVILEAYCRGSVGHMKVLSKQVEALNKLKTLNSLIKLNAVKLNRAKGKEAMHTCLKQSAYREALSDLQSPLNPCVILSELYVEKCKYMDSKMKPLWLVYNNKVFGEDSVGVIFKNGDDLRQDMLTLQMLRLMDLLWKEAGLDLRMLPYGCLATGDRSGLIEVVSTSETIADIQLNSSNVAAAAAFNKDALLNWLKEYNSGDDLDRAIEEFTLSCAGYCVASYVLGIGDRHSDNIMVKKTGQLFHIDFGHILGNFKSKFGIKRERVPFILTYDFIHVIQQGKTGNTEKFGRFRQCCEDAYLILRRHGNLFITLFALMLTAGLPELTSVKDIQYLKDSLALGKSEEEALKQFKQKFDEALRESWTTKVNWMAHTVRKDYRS
# Chain of PI3Kβ (P27986 whole entry partner): as the sequence (P27986 whole entry partner) above
# CHO cells = details: highest tested concentration of 100 μM, 24 h
# [13] = dexamethasone 0.1-10 mg/kg and LAS191954 0.1-10 mg/kg ranges tested, dose of value not stated
# [14] = Week 12 (beginning of treatment)
smiles,measurement,setting,value
"C[C@H]1C[C@@H]2[C@H]([C@@H](O)C[C@@]3(C)[C@H]2CC[C@]3(O)C(=O)CO)[C@@]2(C)C=CC(=O)C=C12 [Methylprednisolone, reference compound]",body weight gain,[1],diminished the body weight gain
"C[C@@H]1C[C@H]2[C@@H]3CCC4=CC(=O)C=C[C@]4(C)[C@@]3(F)[C@@H](O)C[C@]2(C)[C@@]1(O)C(=O)CO [Dexamethasone, dexamethasone, reference compound]",reduction in IL2 production versus vehicle-treated con A-induced rats,[2],only = 42%
same,reduction in IL2 production versus vehicle-treated con A-induced rats,[2]; listed as dexamethasone,42%
same,plasma levels alone versus in combination,[2],same levels
same,reduction in eosinophils in BALF,[3]; [13],58%
same,reduction in lymphocytes in BALF,[3]; [13],64%
same,reduction in neutrophils in BALF,[3]; [13],"only = 53%,"
same,reduction in neutrophils in BALF,neutrophils in BALF,only = 11%
"C[C@H](Nc1ncnc(N)c1C#N)c1nn2ccc(C#N)c2c(=O)n1-c1ccccc1 [LAS191954, (S)-2-(1-(6-amino-5-cyanopyrimidin-4-ylamino)ethyl)-4-oxo-3-phenyl-3,4-dihydropyrrolo[1,2-f][1,2,4]triazine-5-carbonitrile]",IC50,PI3Kδ [4],7.8 nM
same,IC50,PI3Kδ [5],4.6 nM
same,IC50,PI3Kδ [6]; Anti-IgD,47 nM
same,IC50,PI3Kδ [6]; Anti-IgM,34 nM
same,IC50,PI3Kδ [7],11 nM
same,inhibition at single concentration,[8],No inhibition
same,inhibition at single concentration,[9],No inhibition
same,plasma levels alone versus in combination,[2],same levels
same,ID50,"[2]; single administration, rats",0.13 mg/kg
same,ID50,"[10]; primary IgG anti-KLH, day +15, 14-day dosing",0.17 mg/kg
same,lymphocyte count,"[10]; primary IgG study, 14-day dosing",no apparent effect
same,ID50,"[10]; primary IgM anti-KLH, day +5, repeated daily administration",0.12 mg/kg
same,WBC counts,"[10]; primary IgM study, 4 days daily treatment",lower WBC counts
same,general health status of the animals,"[10]; primary TDAR, 0.03-10 mg/kg daily",without apparent effects
same,lymphocyte counts,[11]; 0.3 and 3 mg/kg once daily,reduced lymphocyte counts
same,ID50,"[11]; secondary IgG anti-KLH, day +11 after second immunization, repeated administration",< 0.3 mg/kg
same,ID50,"[12]; Anti-Dsg3 and anti-dsDNA autoantibody production, repeated administration",<3 mg/kg
same,Absolute Anti-Dsg3 IgG levels (Mean ± SEM),[12]; [14],687 ± 252 U/ml
same,Absolute Anti-dsDNA IgG levels (Mean ± SEM),[12]; [14],370.152 ± 52.401 U/ml
same,Absolute Anti-Dsg3 IgG levels (Mean ± SEM),[12]; Week 19 (end of treatment),450 ± 201 U/ml
same,Absolute Anti-dsDNA IgG levels (Mean ± SEM),[12]; Week 19 (end of treatment),333.806 ± 106.959 U/ml
same,mean decrease in anti-Dsg3 antibody levels below those at the beginning of treatment,"[12]; week 19 versus week 12, FIG. 3",40%
same,reduction of anti-dsDNA antibody titers at the end of treatment,"[12]; week 19 versus week 12, FIG. 3",10%
same,effect on eosinophils in BALF (in words),[3]; LAS191954 only,only = Modest
same,effect on lymphocytes in BALF (in words),[3]; LAS191954 only,only = Modest
same,effect on neutrophils in BALF (in words),[3]; LAS191954 only,increase in
same,reduction in neutrophils in BALF,neutrophils in BALF,only = 49%
same,"overall disease activity, AUC of accumulative clinical score versus vehicle",[1]; LAS191954 3 mg/kg/day orally,significant reduction
same,body weight gain,[1],not altered
same,IC50,PI3K p110γ,71.7 nM
same,IC50,PI3Kβ,295 nM
same,maximum cell death,CHO cells,27%
"C[C@]12C=CC(=O)C=C1CC[C@@H]1[C@@H]2[C@@H](O)C[C@@]2(C)[C@H]1CC[C@]2(O)C(=O)CO [Prednisolone, prednisolone]",Inhibition (%) of Anti Dsg3 total IgG production (Normalized AUCw 12-19) versus Vehicle,[12],49.5 ± 10%
same,Inhibition (%) of Anti dsDNA total IgG production (Normalized AUCw 12-19) versus Vehicle,[12],46.9 ± 10.9%
same,Inhibition (%) of Anti Dsg3 total IgG production (Normalized AUCw 12-19) versus Vehicle,[12]; listed as prednisolone,49.5%
same,Inhibition (%) of Anti dsDNA total IgG production (Normalized AUCw 12-19) versus Vehicle,[12]; listed as prednisolone,47%
same,Absolute Anti-Dsg3 IgG levels (Mean ± SEM),[12]; [14],501 ± 188 U/ml
same,Absolute Anti-dsDNA IgG levels (Mean ± SEM),[12]; [14],372.796 ± 56.638 U/ml
same,Absolute Anti-Dsg3 IgG levels (Mean ± SEM),[12]; Week 19 (end of treatment),242 ± 101 U/ml
same,Absolute Anti-dsDNA IgG levels (Mean ± SEM),[12]; Week 19 (end of treatment),933.755 ± 343.424 U/ml
same,change of anti-dsDNA antibody levels at the end of treatment (in words),"[12]; week 19 versus week 12, FIG. 3",doubled
same,mean decrease in anti-Dsg3 antibody levels below those at the beginning of treatment,"[12]; week 19 versus week 12, FIG. 3",20%
